Legend:
[1] = Cardiovascular depressing activity (cardiac side effect studies); assay type: in vivo, guinea pigs; details: unwanted side effect of racemic oxybutynin
Experimental: Male guinea pigs (450-600 g) are anesthetized with freshly prepared dialurethane sodium. The jugular vein is catheterized for iv administration of test drugs and the trachea is exposed and cannulated. Subdermal electrodes are positioned for Lead II electrocardiogram recording, monitored on a Grass Polygraph recorder, set at a paper speed of 50 mm/sec. The animals are allowed to stabilize for 30 minute after completion of surgery, and three baseline EKG recordings are then made at 10-minute intervals. The animals are then given a dose of the test compound or vehicle as an intravenous infusion over 30 min. EKG recordings are used to determine QT intervals and heart rates. To compensate for variations in heart rates, QTc intervals are calculated from QT- and RR-intervals as known to those skilled in the art. Prolongation of QTc is indicative of a prolonged action potential, caused by an inhibition of the delayed rectifier potassium channel. Prolongation of QTc is the known cause of Torsades de Pointes ventricular fibrillation by drugs such as terodiline, terfenadine and astemizole (now withdrawn from the market).

[2] = Tolerability in laboratory animals (acute toxicity in mice); assay type: in vivo; details: compared with the S(+)-isomer
Experimental: The experiments are carried out on conscious albino mice that are administered escalating doses of the test compounds intravenously or orally.

[3] = Therapeutic effects compared with the racemates and optical antipodes; details: compared to their corresponding racemates and their optical antipodes

Structure (SMILES)	cardiovascular depressing activity [1]	tolerated when given to laboratory animals [2]	therapeutic effects [3]
CCN(CC)CC#CCOC(=O)[C@@](O)(c1ccccc1)C1CCCCC1 [S(+)-isomer of oxybutynin]	serious cardiovascular depressing activity		
CCNCC#CCOC(=O)[C@@](O)(c1ccccc1)C1CCCCC1 [S(+)-isomer of desethyloxybutynin]	serious cardiovascular depressing activity		
CCN(CC)CC#CCOC(=O)[C@](O)(c1ccccc1)C1CCCCC1 [R(-)-isomer of oxybutynin, R(-)-4-diethylamino-2-butynyl_-cyclohexyl-_-hydroxy-benzeneacetate]		much better tolerated than the S(+)-isomer	superior therapeutic effects
CCNCC#CCOC(=O)[C@](O)(c1ccccc1)C1CCCCC1 [R(-)-isomer of desethyloxybutynin, R(-)-4-ethylamino-2-butynyl cyclohexylphenyl-glycolate]			superior therapeutic effects
